# Test results: patent US4337760A, “Method for the treatment of tumors with β-glucuronidase activity dependent pharmaceuticals” (Schwimmer; Adolf, priority 1979, dated 1982)
# How the values were obtained:
# β-glucuronidase [1] = assay: Incubation with β-glucuronidase; format: biochemical
# Protocol: The free acid form of the compound was formed by treating the 2,4-dinitrophenyl-methyl(tri-O-acetyl-β-D-glucopyranosyl bromide)-uronate with a one-half molar amount of barium hydroxide to produce the barium salt. This barium salt of the glucuronide precipitates as a white amorphous material. An equimolar solution of H2 SO4 releases the free glucuronide. Distillation of the supernatant yielded bright yellow-brown crystals having a melting point of 179°-180° C.
# [2] = alkaline vs acid pH; cited from earlier work
# β-glucuronidase [3] = settings: cited from earlier work
# [4] = Acute intravenous toxicity to rabbits, range finding screen; format: in vivo, NZW rabbits; settings: i.v.; for Mortality ratio: 14 day observation
# Protocol: (§1) NZW rabbits in the weight range of 2,000 to 3,200 g for females and 2,200 to 3,800 g for males were injected intravenously with mandelonitrile β-D-glucuronic acid solution. Rabbits injected with saline alone served as the control. The mandelonitrile β-D-glucuronic acid solution contained 10% mandelonitrile.
# (§2) During the 14 day observation period a record was kept of all mortalities and signs of toxicity.
# [5] = Acute intravenous toxicity to rabbits, full scale test; format: in vivo, NZW rabbits; settings: for acute median lethal intravenous dose (LD 50): 10% solution, 95% confidence limits, method of Weil
# Protocol: as §1, §2
# Dosing was then extended to larger groups of rabbits (5 males and 5 females per group) in order to locate the median lethal dose more precisely.
# All the deaths of all the groups occurred within 3 hours after dosing.
# The acute median lethal intravenous dose (LD 50) and its 95% confidence limints calculated by the method of Weil, C. S., 1952, Biometrics, 8:249, to rabbits of mandelonitrile-β-D-glucuronic acid 10% solution are calculated to be: […]
# trophoblastic cells = settings: reported; cited from earlier work
# [6] = in vivo; cited from earlier work
compound,measurement,setting,value
"O=C(O)[C@H]1O[C@@H](Oc2ccc([N+](=O)[O-])cc2[N+](=O)[O-])[C@H](O)[C@@H](O)[C@@H]1O [2,4-dinitrophenol-β-D-glucuronic acid]",product on incubation with β-glucuronidase,β-glucuronidase [1],"produced 2,4-dinitrophenol"
"Cc1cc(O)cc(C)c1Cl [4-chloro-3,5-xylanol]",pH-dependent solubility,[2],water soluble at alkaline pH's and lipid-soluble at acid pH's
Oc1c(I)cc(Cl)c2cccnc12 [5-chloro-7-iodo-8-quinolinol],pH-dependent solubility,[2],water soluble at alkaline pH's and lipid-soluble at acid pH's
N#C[C@H](O[C@@H]1O[C@H](CO[C@@H]2O[C@H](CO)[C@@H](O)[C@H](O)[C@H]2O)[C@@H](O)[C@H](O)[C@H]1O)c1ccccc1 [amygdalin],splitting by the enzyme β-glucuronidase,β-glucuronidase [3],cannot be split
"N#CC(O[C@@H]1O[C@H](C(=O)O)[C@@H](O)[C@H](O)[C@H]1O)c1ccccc1 (stereo partly drawn) [mandelonitrile β-D-glucuronic acid, Mandelonitrile β-D-glucuronic acid]",Mortality ratio,[4]; 0.25 ml/kg,0/2
same,Mortality ratio,[4]; 0.5 ml/kg,1/2
same,Mortality ratio,[4]; 1.0 ml/kg,2/2
same,Mortality ratio,[4]; 2.0 ml/kg,2/2
same,Mortality ratio,[4]; 4.0 ml/kg,2/2
same,median lethal intravenous dose (LD-50),"[4]; rabbits, preliminary range finding",0.23-2 ml per kg body weight
same,Time of all the deaths of all the groups after dosing,"[5]; all groups, i.v.",≤ 3 h
same,maximum safe dose,"[5]; believed, from the rabbit data",~0.44 ml/kg body weight
same,acute median lethal intravenous dose (LD 50),[5]; females,0.6873 (0.6442-0.7304) ml/kg body weight
same,Mortality ratio,"[5]; females, i.v., 0.44 ml/kg",0/5
same,Mortality ratio,"[5]; females, i.v., 0.66 ml/kg",2/5
same,Time of death after dosing: No of hours,"[5]; females, i.v., 0.66 ml/kg",< 3 h
same,Time of death after dosing: No. of animals,"[5]; females, i.v., 0.66 ml/kg",2 animals
same,Mortality ratio,"[5]; females, i.v., 1.0 ml/kg",5/5
same,Time of death after dosing: No of hours,"[5]; females, i.v., 1.0 ml/kg",< 3 h
same,Time of death after dosing: No. of animals,"[5]; females, i.v., 1.0 ml/kg",5 animals
same,Mortality ratio,"[5]; females, i.v., 1.5 ml/kg",5/5
same,Time of death after dosing: No of hours,"[5]; females, i.v., 1.5 ml/kg",< 3 h
same,Time of death after dosing: No. of animals,"[5]; females, i.v., 1.5 ml/kg",5 animals
same,Mortality ratio,"[5]; females, i.v., 2.25 ml/kg",5/5
same,Time of death after dosing: No of hours,"[5]; females, i.v., 2.25 ml/kg",< 3 h
same,Time of death after dosing: No. of animals,"[5]; females, i.v., 2.25 ml/kg",5 animals
same,Clinical symptoms of surviving animals,[5]; following 14 days,did not show any clinical symptoms
same,Autopsy of all animals,[5]; gross pathology,did not show clear gross pathological changes
same,acute median lethal intravenous dose (LD 50),[5]; males,0.8419 (0.7809-0.9029) ml/kg body weight
same,Mortality ratio,"[5]; males, i.v., 0.44 ml/kg",0/5
same,Mortality ratio,"[5]; males, i.v., 0.66 ml/kg",2/5
same,Time of death after dosing: No of hours,"[5]; males, i.v., 0.66 ml/kg",< 3 h
same,Time of death after dosing: No. of animals,"[5]; males, i.v., 0.66 ml/kg",2 animals
same,Mortality ratio,"[5]; males, i.v., 1.0 ml/kg",3/5
same,Time of death after dosing: No of hours,"[5]; males, i.v., 1.0 ml/kg",< 3 h
same,Time of death after dosing: No. of animals,"[5]; males, i.v., 1.0 ml/kg",3 animals
same,Mortality ratio,"[5]; males, i.v., 1.5 ml/kg",4/5
same,Time of death after dosing: No of hours,"[5]; males, i.v., 1.5 ml/kg",< 3 h
same,Time of death after dosing: No. of animals,"[5]; males, i.v., 1.5 ml/kg",4 animals
same,Mortality ratio,"[5]; males, i.v., 2.25 ml/kg",5/5
same,Time of death after dosing: No of hours,"[5]; males, i.v., 2.25 ml/kg",< 3 h
same,Time of death after dosing: No. of animals,"[5]; males, i.v., 2.25 ml/kg",5 animals
same,Signs of reaction to treatment,"[5]; observed 2 minutes after dosing, i.v.",ataxia and paralysis
same,Early deaths,"[5]; two minutes after the signs of reaction, high dose group",a few animals of the high dose group died
C[C@]12CC[C@H]3[C@@H](CCC4=CC(=O)CC[C@@]43C)[C@@H]1CC[C@@H]2O [testosterone],β-glucuronidase activity in trophoblastic cells,trophoblastic cells,induce β-glucuronidase activity
Neomycin,known adverse effect,[6],cannot be administered internally because of its toxicity
